# According to patent publication US20100069854A1, “Elastomeric Devices Containing Chlorhexidine/Fatty Acid Salts Made From Fatty Acids of 12 to 18 Carbons” (priority 2008, published 2010):
# What was measured:
# [1] = tested on: Pseudomonas aeruginosa ATCC 27853; assay: Basic broth adherence assay on coated polyurethane tubes; type: cell-based; details: for Inhibition of adherence / antimicrobial effect against Pseudomonas aeruginosa (in words): coated polyurethane tubes compared to uncoated control
# Method: The antimicrobial effectiveness of the coated samples was subjected to different durations of DI water extraction by basic broth adherence assay. For each chlorhexidine/fatty acid salt tested, 3 samples of coated tubing were prepared and assayed. To prepare the inoculum, a culture of Pseudomonas aeruginosa ATCC 27853 was used to challenge the coated polyurethane tubes and controls. The negative control used was a length of uncoated polyurethane tube. The challenge microorganism suspension was prepared as follows: approximately three colonies were removed from a secondary working culture plated on Trypticase Soy Agar (TSA) (BD-Falcon) with 5% sheep's blood and added to 10 ml of Trypticase Soy Broth (TSB). The vial was vortexed for approximately 30 seconds and incubated for 4 hours at 37° C. at 100 rpm. Following incubation, the vial was removed and vortexed. The optical density of the organism suspension was read. The inoculum was then diluted in TSB to a concentration of 5×10^4 colony forming units per milliliter (CFU/mL). This concentration was confirmed by the Miles and Misra drop count method.
# The basic broth adherence assay was performed in a 96 well micro titer plate. To each well of the micro titer plate containing either a test article or a control, 900 μl of TSB was added. To this, 100 μl of the adjusted inoculum was added (Note: Due to the 1/10 dilution per well, the starting inoculum concentration of each organism was […] for Pseudomonas aeruginosa). The micro titer plates were then sealed via parafilm® around the edges and wrapped in foil to avoid evaporation of liquid and light contact with the samples. The plates were then placed inside a shaker incubator set at 37° C. and 100 rpm for 24 hours. Incubation at 37° C. then continued until the elapse of 7 days, 14 days, and 21 days, respectively, for each of the 3 samples prepared for each chlorhexidine/fatty acid salt.
# At the completion of the respective incubation periods, the samples were rinsed, sonicated, the sonicate was plated and adherence was evaluated. More particularly, following incubation, all samples and controls were dip-rinsed twice in phosphate buffered saline (PBS) to remove the surrounding media. After rinsing, test articles were sonicated in micro titer plate wells containing 1 mL of Dey-Engley (DE) neutralizing broth (Difco). The sonication liquid was then serially diluted, and plated onto the surface of DE neutralizing agar. Plates were incubated at 37° C. for 24 to 48 hours and colonies were counted. Recovery counts were recorded as CFU/mL.
# [2] = tested on: Candida albicans ATCC 10231; assay: Zone of inhibition assay with impregnated polyurethane foam discs; type: cell-based; details: for Zone of inhibition compared with the other salts (in words): impregnated polyurethane foam, after several daily transfers / over the 9 day assay
# Method: To evaluate antimicrobial properties of polyurethane foam samples infused with the various chlorhexidine/fatty acid salts, a zone of inhibition assay was performed. In this assay, 1.4% (w/v) of chlorhexidine acetate, chlorhexidine caprate, chlorhexidine laurate, chlorhexidine myristate, chlorhexidine palmitate and chlorhexidine stearate solutions in methanol were prepared. A supply of 8 mm discs were punched out of a sheet of polyurethane foam (Rynel medical grade polyurethane foam) with biopsy punches (Miltex Kai). Several discs were placed in each of six 50 ml centrifuge tubes. Approximately 5 ml of each of the different methanol/chlorhexidine/fatty acid salt solutions was added to each respective tube. The discs were centrifuged for 5 minutes to remove any air bubbles and soaked for 1 hr to infuse the foam discs with the respective chlorhexidine/fatty acid salt. Infused discs were transferred to clean centrifuge tubes and vacuum dried at 25° C. for 24 hrs to remove any residual solvents. Initial concentrations of salts, impregnated into the punches, were determined by dissolving the impregnated foams and by high pressure liquid chromatography (HPLC) analysis using an Agilent Eclipse XDB-CN 3u 4.6×150 mm column with initial mobile phase=65% DI water/0.2% trifluoroacetic acid (TFA): 35% Acetonitrile/0.2% TFA. Chlorhexidine absorbance was read at 253 nm and concentration was calculated via a chlorhexidine calibration curve. […] To perform the zone of inhibition assay on the impregnated polyurethane foam discs, agar plates were prepared by mixing 11 g Mueller-Hinton cation-adjusted broth and 1.5 g agarose in 500 ml DI water. The agar was autoclaved for 15 minutes at 121° C., 15 psi. 10 ml of the still hot, liquid agar was pipetted onto petri dishes. The challenge organism, Candida albicans ATCC 10231, was cultivated in Trypticase soy broth, standard microbiological growth medium (TSB). Sterile cotton swabs were dipped into the undiluted culture and the plated agar was fully inoculated with swabs. The 8 mm polyurethane foam discs were transferred daily to a freshly inoculated agar for 9 days. The zone of inhibition (ZOI) was measured using calipers. Actual ZOI was measured by subtracting the diameter of the foam (when wet) from the zone measured and dividing by 2. The results are presented in Table 6, with a graphical representation of the ZOI in FIG. 2;
# [3] = Rate of release of chlorhexidine/fatty acid salts from coated polyurethane tubes into DI water; type: physicochemical; details: for Cumulative release of the chlorhexidine/fatty acid salts from the coated polyurethane tubes: 1 cm coated tube in DI water, 37° C.; for Time by which approximately all of the salt was released from the coated sample: coated polyurethane tube in DI water
# Method: A solution of each respective chlorhexidine/fatty acid salt was prepared and used to infuse a sample of elastomeric material. To perform the test, individual samples, 8 cm pieces of polyurethane tube containing a colorant, were surface dip coated in respective solutions of the chlorhexidine/fatty acid salts. The solutions were prepared as follows: 8.6 g of Tecoflex (Noveon, Cleveland, Ohio) was dissolved in 174 g of Tetrahydrofuran and methanol. 5.88 g of chlorhexidine acetate, chlorhexidine laurate, chlorhexidine myristate, chlorhexidine palmitate and chlorhexidine stearate were individually dissolved into the polymer-solvent mixture. The samples were immersed into the solvent-polymer-salt mixture and then dried at room temperature, evaporating the solvent. A polymeric coating was produced on the surface of the tubes. The amounts of chlorhexidine/fatty acid salt adhered per cm of the tube was measured (Table 2) by exhaustively extracting the salt and measuring UV absorbance at 253 nm relative to controls: For each of the samples, the rate of release of chlorhexidine/fatty acid salts into an aqueous solution was determined. To perform the rate of release test, 1 cm from each of the coated polyurethane tubes, were submerged in DeIonized (DI) water and incubated at 37° C. for a period of 28 days to determine the rate of release of the salts from the respective 1 cm samples of coated polyurethane tubing. The water was collected and replaced with fresh water after approximately 2 hours. The water was again collected and replaced with fresh water after the first day and every seven days thereafter. The amount of chlorhexidine/fatty acid salt in the collected water was measured with an Agilent 8453 UV-Vis Diode Array Detector with a manual setup using a cuvette w/path length of 1 cm. Chlorhexidine absorbance was read at 253 nm and concentration was calculated via a calibration curve developed using standards of 1, 5, 10, 20, 30, 35, and 40 μg/mL chlorhexidine acetate in DI Water. The percentage of chlorhexidine/fatty acid salt released from the sample into an aqueous media (percent release) was calculated according to the following equation: Percent release=(cumulative release at that time period/initial content)*100.
# [4] = Incorporation of chlorhexidine salts into silicone tubing (swelling impregnation, extraction, HPLC); type: physicochemical; details: for Salt content in silicone elastomeric medical article: one day, equivalent mass of chlorhexidine base extracted;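 for Salt content in silicone elastomeric medical article: columns differ by chlorhexidine salt concentration in the impregnation solution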
# Method: Chlorhexidine diacetate, Chlorhexidine dodecanoate and chlorhexidine palmitate were loaded into silicone tubing by first dissolving the chlorhexidine salt in a 90% THF+10% Methanol solution.
# Impregnated chlorhexidine was extracted from the tubing by immersing in an excess of THF to fully swell it and then adding an equal volume of water to extract the chlorhexidine salt. The quantity of chlorhexidine was determined by previously enumerated HPLC method. It is reported below for different concentration impregnation solutions in terms of the equivalent mass of chlorhexidine base extracted: […]
# [5] = Day 1, daily transfer to fresh agar
# [6] = Day 2, daily transfer to fresh agar
# [7] = Day 3, daily transfer to fresh agar
# [8] = Day 4, daily transfer to fresh agar
# [9] = Day 7, daily transfer to fresh agar
# [10] = Day 8, daily transfer to fresh agar
# [11] = Day 9, daily transfer to fresh agar
# [12] = 1% impregnation solution in 90% THF+10% Methanol
# [13] = 3% impregnation solution in 90% THF+10% Methanol
# [14] = 6% impregnation solution in 90% THF+10% Methanol
# [15] = 10% impregnation solution in 90% THF+10% Methanol
Structure (SMILES),Log10 reduction of adhered Pseudomonas aeruginosa onto the surface of coated polyurethane tubes ([1]; 7 days),Log10 reduction of adhered Pseudomonas aeruginosa onto the surface of coated polyurethane tubes ([1]; 14 days),Log10 reduction of adhered Pseudomonas aeruginosa onto the surface of coated polyurethane tubes ([1]; 21 days),"ZOI produced by impregnated polyurethane foam punches against Candida albicans [2, 5]","ZOI produced by impregnated polyurethane foam punches against Candida albicans [2, 6]","ZOI produced by impregnated polyurethane foam punches against Candida albicans [2, 7]","ZOI produced by impregnated polyurethane foam punches against Candida albicans [2, 8]","ZOI produced by impregnated polyurethane foam punches against Candida albicans [2, 9]","ZOI produced by impregnated polyurethane foam punches against Candida albicans [2, 10]","ZOI produced by impregnated polyurethane foam punches against Candida albicans [2, 11]",Zone of inhibition compared with the other salts (in words) [2],Cumulative release of the chlorhexidine/fatty acid salts from the coated polyurethane tubes ([3]; Day 1),Cumulative release of the chlorhexidine/fatty acid salts from the coated polyurethane tubes ([3]; Day 7),Cumulative release of the chlorhexidine/fatty acid salts from the coated polyurethane tubes ([3]; Day 14),Cumulative release of the chlorhexidine/fatty acid salts from the coated polyurethane tubes ([3]; Day 21),Cumulative release of the chlorhexidine/fatty acid salts from the coated polyurethane tubes ([3]; Day 28),Time by which approximately all of the salt was released from the coated sample [3],"Salt content in silicone elastomeric medical article [4, 12]","Salt content in silicone elastomeric medical article [4, 13]","Salt content in silicone elastomeric medical article [4, 14]",further results
"CC(=O)O.CC(=O)O.NC(=N\CCCCCC/N=C(N)/N=C(\N)Nc1ccc(Cl)cc1)/N=C(\N)Nc1ccc(Cl)cc1 [Chlorhexidine Acetate, chlorhexidine diacetate, reference compound]",5,0,0,12 mm,11 mm,14 mm,8 mm,8 mm,12 mm,12 mm,zones of inhibition that were smaller,155 g,222 g,224 g,224 g,224 g,≤ 7 days,262 µg/cm,395 µg/cm,374 µg/cm,"Inhibition of adherence / antimicrobial effect against Pseudomonas aeruginosa (in words) ([1]; listed as chlorhexidine acetate): inhibition was not apparent at 14 days or thereafter; Inhibition of adherence / antimicrobial effect against Pseudomonas aeruginosa (in words) ([1]; listed as chlorhexidine diacetate): not able to provide an antimicrobial effect against Pseudomonas aeruginosa after 7 days; Percent release of the initial salt concentration from the coated sample ([3]; within 1 day (FIG. 1)): approximately 70%; Salt content in silicone elastomeric medical article [4, 15]: 439 µg/cm"
"CCCCCCCCCCCC(=O)O.NC(=NCCCCCCN=C(N)N=C(N)Nc1ccc(Cl)cc1)N=C(N)Nc1ccc(Cl)cc1 [Chlorhexidine Laurate, chlorhexidine dilaurate]",7,0,0,27 mm,31 mm,32 mm,27 mm,23 mm,31 mm,29 mm,relatively largest ZOI,62 g,145 g,165 g,167 g,167 g,≤ 14 days,249 µg/cm,408 µg/cm,526 µg/cm,"Inhibition of adherence / antimicrobial effect against Pseudomonas aeruginosa (in words) [1]: inhibition was not apparent at 14 days or thereafter; Salt content in silicone elastomeric medical article [4, 15]: 614 µg/cm; Absorption into silicone tubing compared with the other salts (in words) ([4]; silicone tubing, 90% THF+10% Methanol): absorbed at much higher concentrations than the other salts"
